From the METLIN SMRT retention time set (Domingo-Almenara et al. 2019) come the findings set out here.

Structures are written as SMILES.

The data set in a line: gradient 5% acetonitrile 3 min, to 50% in 2 min, to 85% in 15 min, held 3 min, 100 µL/min. Conditions: column: Zorbax Extend-C18 2.1 x 50 mm; eluents: water / acetonitrile, 0.1% formic acid. The gist of the method:
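Each retention time is based on an adduct peak selected computationally and verified by manual inspection. Measurements used HPLC–quadrupole time-of-flight mass spectrometry in positive and negative ionization mode on mixtures of ~100 pure standards. Chromatography ran on a Zorbax Extend-C18 column (2.1 × 50 mm, 1.8 μm) at 100 μL/min with water and acetonitrile, each containing 0.1% formic acid, and dead and dwell volumes of 40 μL and 900 μL.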
As to `c1ccc(-c2nnc(Cc3nc(-c4ccc5c(c4)OCO5)no3)o2)cc1`, the RP-LC retention time amounted to 957 s.
To `Cc1ccccc1CNC(=O)C1(C)CCCN(C(=O)Nc2cccc(Cl)c2)C1` (stereo not given) belongs 1030 s; to `O=C(Nc1ncc(Cc2ccc(Cl)cc2)s1)c1ccco1`, 869 s.
With `CCOC(=O)c1cc(C)n(CC(=O)N2CCOCCNC(=O)CC2)c1C` the figure was 652 s; with `CCn1cccc1-c1nc(C)c(C(=O)NCCc2ccc(OC)c(OC)c2)s1`, 998 s.
With `Cc1ccc2c(c1)N(Cc1cc(F)cc(F)c1)N=C(C(=O)N1CCCC1)S2(=O)=O` the figure was 900 s; with `O=C(NCCc1c[nH]c2ccccc12)C1CC(=O)N(c2n[nH]c3cccc(F)c23)C1` (stereo not given), 710 s.
`CCOC1CCN(C(=O)NC(C)(C)C)CC1`: the RP-LC retention time was determined as 700 s.
`CCOc1ccc(C(=O)N2C[C@H](c3nc(-c4ccncc4)no3)[C@@H](C)C2)cc1` registered an RP-LC retention time of 838 s.
With `CCOC(=O)c1c(C)n(C)c2cc(Br)c(OC)cc12` the figure was 1090 s; with `Cc1nnc(-c2coc(S(=O)(=O)N3CCCCC3)c2)o1`, 767 s.
With `CS(=O)(=O)N1C[C@H]2CCN(Cc3ccc(Cl)cc3F)C[C@H]21` the figure was 599 s; with `Cc1cc(=O)n(CC(=O)Nc2ccc3c(c2)OCO3)c(N2CCOCC2)n1`, 644 s; with `COc1ccc(CN2C(=O)C3(CCOCC3)CC2c2nnnn2C(C)(C)C)cc1` (stereo not given), 760 s.
To `Cc1nc(-c2csc(S(=O)(=O)N3CCCC(C(=O)NCc4ccc(N(C)C)cc4)C3)c2)no1` (stereo not given) belongs 686 s; to `COc1cccc(CNC(=O)c2ccc3c(c2)N(C)C(=O)C2CCCCN32)c1` (stereo not given), 842 s; to `O=C(Cc1ccc(Br)cc1)NCC(=O)N1CCCc2ccccc21`, 876 s.
For the compound `CN1C(=O)[C@H]2CN(Cc3cn[nH]c3-c3cccc(Br)c3)C[C@H]2C1=O`, the RP-LC retention time was determined as 612 s.
`CCn1cc(CC(=O)NCc2ccc(F)cc2F)c2cccnc21` yielded an RP-LC retention time of 723 s.
`Cc1cc2[nH]c(C(=O)Nc3ccc(Cl)cc3C)c(CN(C)C)c2s1` showed an RP-LC retention time of 704 s.
To `Cc1sc2ccn(C)c(=O)c2c1C(=O)NCc1ccc(OC(C)C)cc1` belongs 833 s.
`CCCCN1C(SCC(=O)NCc2cccs2)=NS(=O)(=O)c2ccccc21` returned an RP-LC retention time of 782 s.
To `O=C1NC2(CCN(C(=O)c3cccc(F)c3)CC2)N=C1c1cccc(F)c1` belongs 821 s.
With `Cc1ccc(-n2ccc(=O)c(-c3nc(-c4cccc(C)c4)no3)n2)cc1` the figure was 974 s; with `COc1cc2c(cc1OC)C(C(=O)NCCN1CCOCC1)C(c1cccs1)N(C)C2=O` (stereo not given), 604 s; with `CC(=O)Cc1nsc(NC(=O)c2ccc(-c3cccc(Cl)c3)o2)n1`, 866 s.
With `CCOc1cc(-c2ccccc2)nc2ccc(NS(=O)(=O)c3ccc(OC)c(OC)c3)cc12`, the RP-LC retention time stood at 730 s.
The compound `CCOC1CCOC2(CCN(C(=O)c3ccoc3)CC2)C1` (stereo not given) yielded an RP-LC retention time of 686 s.
Compound `O=C(NCC1CCCCC1)C1CCN(C(=O)c2ncn3c2COC(c2ccc(Cl)cc2)C3)CC1` (stereo not given) gave an RP-LC retention time of 830 s.
Turning to `CCC1CN(C(=O)N2CCC(C(=O)NCCCN3CCCC3=O)CC2)c2ccccc2O1` (stereo not given), the RP-LC retention time was found to be 709 s.
In the case of `O=C(COc1ccc(-c2cnc3ccccc3n2)cc1)NCC1CCCO1` (stereo not given), the RP-LC retention time came to 726 s.
The compound `CN1c2ccc(F)cc2C(=O)NC12CCN(C(=O)c1ccc3c(c1)OCO3)CC2` showed an RP-LC retention time of 724 s.
The compound `CCSc1nnc(NC(=O)Cn2cnc(C(C)C)cc2=O)s1` displayed an RP-LC retention time of 664 s.
Regarding `O=C(C1CCCCC1)N1CCN(c2cc(-c3ccc(Cl)cc3)[nH]n2)CC1`, the RP-LC retention time stood at 910 s.
To `CCN1CCc2nc(-c3ccc(F)cc3)n(CC(=O)N3CCCc4ccccc43)c(=O)c2C1` belongs 625 s.
To `NS(=O)(=O)c1ccc(NC(=O)C2CCCN(c3ccc(=O)n(-c4cccc(F)c4)n3)C2)cc1` (stereo not given) belongs 703 s; to `O=C(CCc1c(-c2ccc(Br)cc2)nc2ccccn12)NCCCc1ccccc1`, 722 s.
As to `Cc1ccc(NC(=O)CC2SC3=NCCN3C2=O)cc1` (stereo not given), the RP-LC retention time came to 578 s.
To `O=C(Nc1cccc(F)c1)C1CCN(S(=O)(=O)c2cc(C(=O)N3CCCCCC3)cs2)CC1` belongs 939 s; to `CCOc1ccc(S(=O)(=O)N2CCC(C(=O)NCCC3=CCCCC3)CC2)cc1`, 953 s.
With `O=C(NC1CC1)c1snc(-c2ccccn2)c1NC(=O)C1CC1` the figure was 720 s; with `O=C(c1ccccc1Cl)N1CCN(Cc2noc3ccccc23)CC1`, 755 s; with `Cc1ncoc1C(=O)N1CCC(c2noc(-c3cnccn3)n2)C1` (stereo not given), 620 s.
As for `COc1ccc(NC(=O)N2CCC3(CC2)NC(=O)c2cccc(Cl)c2N3)c(C)c1`, the RP-LC retention time came to 834 s.
To `Cc1ccc(-c2nc3ncc(C#N)c(N)n3n2)cc1` belongs 707 s; to `O=C(Cc1cccc(F)c1)NC1CCN(c2ccccc2)C1=O` (stereo not given), 770 s.
With `O=C(NCCN1CCOCC1)C1CCN(c2nc3cccnc3s2)CC1` the figure was 570 s.
To `O=C(C1CC(=O)N(c2n[nH]c3ccccc23)C1)N1CCN(c2ccc(Cl)cc2)CC1` (stereo not given) belongs 799 s; to `Cc1ccc(-c2ccc(=O)n(Cc3noc(C(=O)N4CCC(C)CC4)n3)n2)cc1C`, 1050 s.
`COc1ccccc1CNC(=O)c1c(C)sc2ccn(CC(C)C)c(=O)c12` displayed an RP-LC retention time of 989 s.
To `O=C1c2ccccc2-c2c1c1ccccc1c(=O)n2Cc1ccccc1` belongs 1130 s; to `O=C(Cc1ccc(NC(=O)c2ncc(-c3ccccc3)o2)cc1)NCc1cccs1`, 866 s; to `CCN(CC)S(=O)(=O)c1ccc2c(c1)cc(C(=O)NCCC(C)N1CCCC1)n2C` (stereo not given), 658 s.
`Fc1ccc(-c2nc3cnccn3c2Nc2ccc(Cl)cc2)cc1` gave an RP-LC retention time of 936 s.
Regarding `CC(=O)Nc1nc(C)c(-c2ccc(Cl)c(S(=O)(=O)NCCO)c2)s1`, the RP-LC retention time worked out at 685 s.
With `CC(C)NC(=O)Cn1c(=O)c2cnc(-c3ccccc3)nc2n(C)c1=O` the figure was 802 s; with `CN(C)c1nc2cc(C(=O)NC3CCCC3)sc2n1-c1ccc(F)cc1`, 1050 s; with `CC(C)CNC(=O)CCc1nc2ccccc2n(CC(=O)NCc2ccc3c(c2)OCO3)c1=O`, 748 s.
In the case of `Cc1ccc(-c2nc3n(CC(=O)NC4CC4)c4c(c(=O)n3n2)CCC4)cc1`, the RP-LC retention time was found to be 702 s.
With `COCC1(F)CCN(Cc2c(-c3ccc(C)cc3)nc3c(C)cccn23)CC1`, the RP-LC retention time came to 608 s.
